Here are results for 1 substance from patent US20040106120A1, “Diagnosis and treatment of disease” (priority 2000, published 2004).

The target of one assay is T1, Corneodesmosin (Homo sapiens, UniProt Q15517).
T1 construct: The native form of corneodesmosin has a molecular weight of between 50 and 56 kDa; from tissue; host or cells: human epidermis (TENP-40 buffer extract)
T1 sequence (Q15517 33-529): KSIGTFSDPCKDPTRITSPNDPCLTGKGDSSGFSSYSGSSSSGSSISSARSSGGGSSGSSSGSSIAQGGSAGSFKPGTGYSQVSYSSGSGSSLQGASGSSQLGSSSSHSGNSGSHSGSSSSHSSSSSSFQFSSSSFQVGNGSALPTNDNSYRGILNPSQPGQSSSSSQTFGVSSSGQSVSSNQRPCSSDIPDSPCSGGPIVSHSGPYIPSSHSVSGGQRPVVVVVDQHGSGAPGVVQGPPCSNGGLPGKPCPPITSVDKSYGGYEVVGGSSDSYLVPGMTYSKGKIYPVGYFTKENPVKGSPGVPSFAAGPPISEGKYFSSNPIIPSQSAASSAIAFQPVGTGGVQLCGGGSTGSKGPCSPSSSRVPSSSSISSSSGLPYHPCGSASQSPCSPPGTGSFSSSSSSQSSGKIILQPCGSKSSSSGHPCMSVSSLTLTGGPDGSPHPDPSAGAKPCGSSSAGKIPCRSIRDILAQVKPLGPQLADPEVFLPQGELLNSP
Kind of assay: Cleavage of adhesion proteins from human epidermis by recombinant SCCE/SCTE (immunoblot). The class given is biochemical. The conditions noted are these: human epidermis protein extract incubated with active recombinant enzyme at 37 C. On the procedure:
(§1) Recombinant ProSCCE is produced and purified as described above. Recombinant ProSCCE is activated with agarose-bound trypsin, as described in Brasttsand & Egelrud, 1999.
(§2) Proteins are extracted from human epidermis in the presence of a detergent (TENP-40 buffer extract) and incubated with active SCCE for 37 C. for 4 h. The reactions are stopped by boiling for 2 mins after Laemmli's sample buffer is added. The proteins are immunoblotted with antibodies against corneodesmosomal proteins.

In another assay the test system is Desmocollin. The assay is described as above. In kind it is biochemical. As to conditions: human epidermis protein extract incubated with active recombinant enzyme at 37 C. On the procedure:
as §1, §2

The next assay concerns Desmoglein. The assay is described as above. The class given is biochemical. The conditions noted are these: human epidermis protein extract incubated with active recombinant enzyme at 37 C. The protocol:
as §1, §2

Another assay relates to Desmoplakin. Described as above. The conditions noted are these: human epidermis protein extract incubated with active recombinant enzyme at 37 C. The class given is biochemical. On the procedure:
as §1, §2

Another assay addresses T2, Envoplakin (Homo sapiens, UniProt Q92817).
T2 construct: The native form of Envoplakin has a molecular weight of between 124-209 kDa; from tissue; host or cells: human epidermis (TENP-40 buffer extract)
Described as above. In kind it is biochemical. The conditions noted are these: human epidermis protein extract incubated with active recombinant enzyme at 37 C. The protocol:
as §1, §2

The next assay deals with T3, Plakoglobin (Homo sapiens, UniProt P14923).
T3 construct: The native form of plakoglobin has a molecular weight of between 85 kDa and 75 kDa; from tissue; host or cells: human epidermis (TENP-40 buffer extract)
T3 sequence (P14923 1-745): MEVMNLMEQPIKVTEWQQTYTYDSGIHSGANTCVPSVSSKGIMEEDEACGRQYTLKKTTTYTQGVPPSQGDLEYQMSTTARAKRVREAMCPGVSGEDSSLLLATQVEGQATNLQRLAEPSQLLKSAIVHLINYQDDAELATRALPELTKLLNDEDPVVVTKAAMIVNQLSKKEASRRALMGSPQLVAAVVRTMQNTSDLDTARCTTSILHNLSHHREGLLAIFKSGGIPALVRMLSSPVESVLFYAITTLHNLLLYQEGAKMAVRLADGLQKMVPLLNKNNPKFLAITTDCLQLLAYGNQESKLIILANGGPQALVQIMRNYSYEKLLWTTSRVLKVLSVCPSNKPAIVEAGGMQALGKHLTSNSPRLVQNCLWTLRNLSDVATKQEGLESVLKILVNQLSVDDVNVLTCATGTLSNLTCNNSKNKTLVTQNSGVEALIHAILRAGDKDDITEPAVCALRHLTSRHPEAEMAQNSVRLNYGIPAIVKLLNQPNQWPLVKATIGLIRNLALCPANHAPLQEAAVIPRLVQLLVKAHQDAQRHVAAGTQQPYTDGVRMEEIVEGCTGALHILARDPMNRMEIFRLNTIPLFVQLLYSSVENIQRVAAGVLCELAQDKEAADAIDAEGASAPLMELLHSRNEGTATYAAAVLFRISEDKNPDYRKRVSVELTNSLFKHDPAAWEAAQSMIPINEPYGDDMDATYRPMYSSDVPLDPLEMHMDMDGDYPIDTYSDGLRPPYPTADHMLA
The description is as above. The class given is biochemical. As to conditions: human epidermis protein extract incubated with active recombinant enzyme at 37 C. On the procedure: as §1, §2

For assay [1], the system named is corneodesmosomes in stratum corneum tape strips. Kind of assay: Treatment of tape strips from psoriatic skin with proteases, corneodesmosome density by electron microscopy. Further details: species or system human. The conditions noted are these: 22-50 nM recombinant SCCE or SCTE, 1-6 h at 37° C. The protocol: Tape strips are obtained according to a method described by Guerrin et al, 1998.
Small pieces of tape strips from control patients along with patients suffering from the skin conditions eczema, psoriasis, dermatitis and psoriasis are fixed for 2 h at 4° C. in Karnovsky fixative (2% paraformaldehyde, 2.5% gluteraldehyde in 0.1M phosphate buffer, pH 7.4). The samples are then washed three times in 0.1M phosphate buffer (pH7.4) containing 10% sucrose for 30 minutes each at 4° C.
Secondary fixation is carried out in aqueous 2% osmium tetroxide solution for 1 hour at room temperature. Dehydration is through a graded series of ethanol at room temperature (75% ethanol for 15 minutes; 95% ethanol for 15 minutes; 2 washes of 100% ethanol for 15 minutes; 100% ethanol dried over anhydrous copper sulphate for 15 minutes).
For resin embedding, samples are first placed in the intermediate solvent, propylene oxide, for two changes of 15 minutes duration. This is followed by infiltration in a 50:50 mixture of propylene oxide:araldite resin overnight at room temperature. […]
Ultrathin sections (70-90 nm) are cut on an ultramicrotome. […] Electron micrographs are recorded on Agfa Scientific 23D56 EM film.
Corneodesmosome density (area occupied by corneodesmosomes divided by total area of micrograph) is measured on electron micrographs of tape strips of each condition. […]

T2 sequence (Q92817 whole entry): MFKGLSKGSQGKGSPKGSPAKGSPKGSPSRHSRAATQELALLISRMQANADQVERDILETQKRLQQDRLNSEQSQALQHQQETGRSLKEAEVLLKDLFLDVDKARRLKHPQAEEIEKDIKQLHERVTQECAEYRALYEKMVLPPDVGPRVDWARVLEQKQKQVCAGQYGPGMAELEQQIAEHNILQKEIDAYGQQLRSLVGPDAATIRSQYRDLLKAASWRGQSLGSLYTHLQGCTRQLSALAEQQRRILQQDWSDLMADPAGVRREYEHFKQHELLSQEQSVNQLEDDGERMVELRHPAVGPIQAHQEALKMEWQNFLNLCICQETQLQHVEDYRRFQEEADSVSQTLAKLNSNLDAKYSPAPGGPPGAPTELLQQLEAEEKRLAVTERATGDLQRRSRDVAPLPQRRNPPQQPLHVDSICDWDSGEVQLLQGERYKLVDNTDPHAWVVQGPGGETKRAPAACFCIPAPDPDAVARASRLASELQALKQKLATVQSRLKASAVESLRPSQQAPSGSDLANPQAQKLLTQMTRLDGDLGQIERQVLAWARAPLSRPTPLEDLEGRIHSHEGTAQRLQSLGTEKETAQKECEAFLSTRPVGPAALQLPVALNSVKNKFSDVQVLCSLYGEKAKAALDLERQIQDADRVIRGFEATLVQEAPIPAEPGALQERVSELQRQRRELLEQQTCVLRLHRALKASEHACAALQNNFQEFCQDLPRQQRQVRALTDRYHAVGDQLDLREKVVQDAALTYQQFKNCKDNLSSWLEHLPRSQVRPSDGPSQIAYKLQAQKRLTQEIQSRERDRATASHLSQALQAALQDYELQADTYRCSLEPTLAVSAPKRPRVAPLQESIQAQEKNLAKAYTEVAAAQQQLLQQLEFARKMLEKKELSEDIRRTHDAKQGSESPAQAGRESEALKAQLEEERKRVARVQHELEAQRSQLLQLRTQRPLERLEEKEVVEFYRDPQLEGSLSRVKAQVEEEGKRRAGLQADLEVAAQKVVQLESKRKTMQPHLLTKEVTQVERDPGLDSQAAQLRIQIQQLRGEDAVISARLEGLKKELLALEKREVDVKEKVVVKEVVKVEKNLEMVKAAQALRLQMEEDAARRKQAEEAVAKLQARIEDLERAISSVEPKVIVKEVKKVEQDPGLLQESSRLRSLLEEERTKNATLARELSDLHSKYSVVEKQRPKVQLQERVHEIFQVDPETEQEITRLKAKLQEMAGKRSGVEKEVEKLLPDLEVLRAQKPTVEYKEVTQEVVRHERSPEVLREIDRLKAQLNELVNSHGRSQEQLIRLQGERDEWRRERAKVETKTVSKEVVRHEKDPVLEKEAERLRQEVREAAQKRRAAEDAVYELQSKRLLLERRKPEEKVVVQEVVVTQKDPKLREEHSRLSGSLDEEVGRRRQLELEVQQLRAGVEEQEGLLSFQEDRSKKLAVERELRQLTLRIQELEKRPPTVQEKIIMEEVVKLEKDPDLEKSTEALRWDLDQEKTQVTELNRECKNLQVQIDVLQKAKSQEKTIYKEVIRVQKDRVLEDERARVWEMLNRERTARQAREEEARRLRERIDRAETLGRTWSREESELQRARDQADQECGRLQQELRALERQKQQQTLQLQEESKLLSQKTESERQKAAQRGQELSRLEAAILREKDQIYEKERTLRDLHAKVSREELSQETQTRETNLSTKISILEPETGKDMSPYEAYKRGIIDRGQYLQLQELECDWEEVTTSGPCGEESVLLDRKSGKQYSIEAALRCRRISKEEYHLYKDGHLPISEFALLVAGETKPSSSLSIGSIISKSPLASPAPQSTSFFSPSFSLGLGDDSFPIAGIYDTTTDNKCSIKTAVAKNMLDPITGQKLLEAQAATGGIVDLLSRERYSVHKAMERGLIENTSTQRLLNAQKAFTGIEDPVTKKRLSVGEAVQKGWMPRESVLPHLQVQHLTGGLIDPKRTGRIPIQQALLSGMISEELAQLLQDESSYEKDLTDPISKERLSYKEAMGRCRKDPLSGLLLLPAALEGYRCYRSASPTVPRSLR

In the case of “SCTE: recombinant Stratum Corneum Tryptic Enzyme expressed in an active form”, in the assay with Corneodesmosin, the “proteolysis of Corneodesmosin” value is “proteolysed”. The “proteolysis of Desmocollin” value with Desmocollin was “proteolysed”. Moreover, the “proteolysis of Desmoglein” value with Desmoglein is reported as “proteolysed”. The “proteolysis of Desmoplakin” value with Desmoplakin was “proteolysed”. Moreover, the “proteolysis of Envoplakin” value in the assay with Envoplakin is “proteolysed”. Also, in the assay with Plakoglobin, the “proteolysis of Plakoglobin” value is reported as “proteolysed”. In assay [1], the “number of corneodesmosomes in treated versus untreated stratum corneum” value is listed as “decrease significantly”.
